Legend:
Format in all cases: in vitro ADME
[1] = In vitro liver microsomal metabolism study, human; conditions: human liver microsomes
Protocol: (§1) Metabolic stability was assessed by incubating compounds in the presence of human, rat, and mouse liver microsomal fractions (Xenotech, Kansas City, KS, USA). All chemicals and reagents, including control compounds, were purchased from commercial sources such as Sigma-Aldrich (St. Louis, MO, USA) or Toronto Research Chemicals (North York, ON, Canada). Liver microsomal incubations were conducted with 100 mM phosphate buffer, 0.5 mg/mL of liver microsomal protein, 2 mM NADPH, 2.5 mM UDPGA, 3 mM MgCl2, alamethicin, and 1 μM test article for a total incubation volume of 80 µL. All reagents except the liver microsomes were mixed together and aliquoted (60 μL) into 96-well plates. The reaction was initiated by adding the microsomes (20 μL). At 0, 3, 7, 12, 20, and 30 min time points, the reactions were terminated with the addition of acetonitrile-containing carbutamide (as an internal standard). The terminated samples were then centrifuged at 2 °C to pellet the protein and the supernatant was injected onto an LC–MS. The test article was monitored for loss over time and the t1/2 was determined. The calculated t1/2 was then used as described below to determine the Eh (hepatic extraction ratio) for both human and rat.
(§2) The intrinsic clearance (CLint), hepatic clearance (CLh), and hepatic extraction ratio (Eh) were calculated using the equations below. CLint = (0.693/t1/2 in vitro) × (mL incubation volume/mg microsomal protein) × (X mg of microsomal protein/gram of liver) × (Y g of liver/kg of body weight)(1) CLh = Q × CLint/Q + CLint(2) Eh = CLh/Q(3) where: • CLint = intrinsic clearance (calculated from microsomal incubations) • X = 40 for human, 41.5 for rat and 45 for mouse • Y = 21.4 for human, 40 for rat and 50 for mouse • t1/2 = half-life • CLh = hepatic clearance • Q = liver blood flow rate = 1.24 L/h/kg for human, 4.8 L/h/kg for rat, and 5.4 L/h/kg for mouse • Eh = hepatic extraction ratio • CLh = hepatic clearance

[2] = In vitro liver microsomal metabolism study, rat; conditions: rat liver microsomes
Protocol: as §1, §2

[3] = In vitro liver microsomal metabolism study, mouse; conditions: mouse liver microsomes
Protocol: as §1, §2

[4] = Plasma stability study, human; conditions: pooled plasma, 37 °C, read-out: Plasma Half-Life, t1/2
Protocol: (§3) Briefly, plasma stability was assessed by incubating compounds in the presence of human (pooled) and mouse (pooled) plasma (Bioreclamation, Westbury, NY, USA). All chemicals and reagents including control compounds were purchased from commercial sources such as Sigma-Aldrich or Toronto Research Chemicals. Plasma incubations were conducted by placing plasma (95 μL) in a 96-well microtiter plate and warming to 37 °C for 5 min. The reaction was initiated with the addition of the test article (5 μL of 20 μM), totaling 100 μL in incubation volume. At 0, 15, 30, 60, and 120 min time points, the reactions were terminated with the addition of acetonitrile-containing carbutamide (as an internal standard). The terminated samples were then centrifuged at 2 °C to pellet the protein, and the supernatant was injected onto an LC–MS. The test article was monitored for loss over time and the t1/2 was determined.

[5] = Plasma stability study, mouse; conditions: mouse, pooled plasma, 37 °C, read-out: Plasma Half-Life, t1/2
Protocol: as §3

[6] = Bidirectional permeability in Caco-2 cells; conditions: human, Caco-2, 5 µM, alone; for efflux ratio at 60 min, 5 µM: read-out: Ratio (B/A), efflux ratio
Protocol: The Caco-2 cell culture and bidirectional permeability assays used in the study were adapted from previous studies at Takeda. Briefly, Caco-2 cells were obtained from American Type Culture Collection (ATCC) (Manassas, VA, USA) and were cultured in 175 cm^2 tissue culture T-flasks (Corning Life Sciences, Corning, NY, USA). For bidirectional permeability assays, cells were plated onto Costar 24-well culture plates (0.33 cm^2/well, […] (Corning Life Sciences, Corning, NY, USA) by adding 1 × 10^5 cells suspended in 0.2 mL of culture medium (Dulbecco’s modified Eagle’s medium [DMEM] with 0.1 mM non-essential amino acids, 2 mM L-glutamine, 4.5 g/L glucose, and 10% fetal bovine serum [FBS]) to the upper chamber of each well of the 24-well transwell plate. Cell-free culture medium (40 mL) was added to the lower chamber reservoir (Corning Life Sciences, Corning, NY, USA). The transwell plates were then incubated at 37 °C in an atmosphere of 5% CO2 for 25 days to ensure complete enterocyte-like differentiation of the cells, and the culture medium was changed every three to four days during the incubation period. Cell monolayers with transepithelial electrical resistance (TEER) values > 250 ohms × cm^2 were used for the bidirectional permeability assays.
All chemicals and reagents including control compounds were purchased from commercial sources such as Sigma-Aldrich or synthesized in house (pevonedistat and LY335979). Bidirectional transport studies were performed at 37 °C. Before each experiment, the confluent cell monolayers on transwell inserts were washed and equilibrated for 30 min with transport media (Hank’s Balanced Salt Solution [HBSS] containing 25 mM 4-(2-hydroxyethyl)-1-piperazineethanesulfonic acid [HEPES] and 10 mM glucose, pH 7.4 or 6.5). The bidirectional permeability of 5 µM of the cyclohexane derivative was assessed alone or in the presence of 5 µM LY335979, 5 µM K0143, or 10 µM Elacridar to inhibit P-gp, BCRP, and both efflux transporters, respectively. Additionally, the bi-directional permeability of 5 µM solutions of nadolol (low permeable control marker), minoxidil (high permeable marker), propranolol (high permeable marker), and pevonedistat (efflux transporter control) was also assessed. The experiment was initiated by adding a solution containing the test compounds and LY335979 to either the apical (for apical-to-basolateral [A-to-B] transport) or basolateral (for basolateral-to-apical [B-to-A] transport) compartment. Lucifer yellow (50 µM) was added to each donor chamber in the experiment to serve as a paracellular transport control and to monitor cell monolayer integrity. The apical volume was 0.2 mL and the basolateral volume was 1.0 mL. Bovine serum albumin (BSA, Sigma Aldrich) (5%) was added to the transport media on the receiver side to prevent non-specific binding of the test compound to the polystyrene well. After the addition of test compound into the donor side, […] of the receiving solution were withdrawn from the receiver side at 30 and 60 min. A […] of fresh transport media was immediately added to the receiver side at 30 and 60 min. The samples were placed into 96-well black plates (PerkinElmer Life Sciences, Boston, MA, USA) for fluorescence measurement (excitation at 450 nm and emission at 535 nm). After this measurement, the amounts of cyclohexane derivative and control compounds in each sample were quantified with liquid chromatography–mass spectrometry (LC–MS). The time course of drug transported across cell monolayers was analyzed to determine the time and rate of steady-state flux. The transport rate (total amount of drug present in the receiver chamber per unit time), Papp, and efflux ratio were calculated as described in Equations (4) and (5). […]

COc1ccc2c(c1)[C@]13CCCC[C@@H]1[C@H](C2)N(C)CC3 [Dextromethorphan, reference compound]
CLh [1]: 14 mL/min/kg
Eh (hepatic extraction ratio) [1]: 0.676
CLint scaled at 1 µM ([1]; 1 μM, NADPH + UDPGA): 43.2 mL/min/kg
CLh [2]: 71.2 mL/min/kg
Eh (hepatic extraction ratio) [2]: 0.889
CLint scaled at 1 µM ([2]; 1 μM, NADPH + UDPGA): 642 mL/min/kg
CLh [3]: 77.3 mL/min/kg
Eh (hepatic extraction ratio) [3]: 0.860
CLint scaled at 1 µM ([3]; 1 μM, NADPH + UDPGA): 552 mL/min/kg

CCOC(=O)[C@H](CCc1ccccc1)N[C@@H](C)C(=O)N1CCC[C@H]1C(=O)O [Enalapril, reference compound]
half-life at 1 µM [4]: 283 min
half-life at 1 µM [5]: 30.6 min

Nc1cc(N2CCCCC2)nc(N)[n+]1[O-] [Minoxidil, reference compound]
Papp A→B at 60 min, 5 µM [6]: 7.81 ×10⁻⁶ cm/s
Papp B→A at 60 min, 5 µM [6]: 9.78 ×10⁻⁶ cm/s
efflux ratio at 60 min, 5 µM [6]: 1.3

CC(C)(C)NCC(O)COc1cccc2c1CC(O)C(O)C2 (stereo not shown) [Nadolol, reference compound]
Papp A→B at 60 min, 5 µM [6]: 0.36 ×10⁻⁶ cm/s
Papp B→A at 60 min, 5 µM [6]: 1.45 ×10⁻⁶ cm/s
efflux ratio at 60 min, 5 µM [6]: 4.1

NS(=O)(=O)OC[C@@H]1C[C@@H](n2ccc3c(N[C@H]4CCc5ccccc54)ncnc32)C[C@@H]1O [Pevonedistat, reference compound]
Papp A→B at 60 min, 5 µM [6]: 3.37 ×10⁻⁶ cm/s
Papp B→A at 60 min, 5 µM [6]: 63.4 ×10⁻⁶ cm/s
efflux ratio at 60 min, 5 µM [6]: 18.8

CC(C)[N+](C)(CCOC(=O)C1c2ccccc2Oc2ccccc21)C(C)C [Propantheline, reference compound]
half-life at 1 µM [4]: 7.22 min
half-life at 1 µM [5]: 26 min

CC(C)NCC(O)COc1cccc2ccccc12 (stereo not shown) [Propranolol, reference compound]
Papp A→B at 60 min, 5 µM [6]: 43.7 ×10⁻⁶ cm/s
Papp B→A at 60 min, 5 µM [6]: 44.4 ×10⁻⁶ cm/s
efflux ratio at 60 min, 5 µM [6]: 1
